In patent US6432960B1, “Squarate derivatives of dihydropyridine NPY antagonists” (Bristol-Myers Squibb Company, priority 2000, dated 2002):

Tests used:
NPY Y1 receptors = target: T1, NPY Y1 receptors (Homo sapiens, UniProt P25929); experiment: Binding affinity at NPY Y1 receptors in SK-N-MC cell membranes, iodine-125-labeled I-PYY radioligand; settings: SK-N-MC (human neuroblastoma) cell membranes; 125I-PYY radioligand
T1 construct: assayed in SK-N-MC (human neuroplastoma) cell membranes; endogenous in cells; host or cells: SK-N-MC (human neuroblastoma) cell membranes
T1 sequence (P25929 1-384): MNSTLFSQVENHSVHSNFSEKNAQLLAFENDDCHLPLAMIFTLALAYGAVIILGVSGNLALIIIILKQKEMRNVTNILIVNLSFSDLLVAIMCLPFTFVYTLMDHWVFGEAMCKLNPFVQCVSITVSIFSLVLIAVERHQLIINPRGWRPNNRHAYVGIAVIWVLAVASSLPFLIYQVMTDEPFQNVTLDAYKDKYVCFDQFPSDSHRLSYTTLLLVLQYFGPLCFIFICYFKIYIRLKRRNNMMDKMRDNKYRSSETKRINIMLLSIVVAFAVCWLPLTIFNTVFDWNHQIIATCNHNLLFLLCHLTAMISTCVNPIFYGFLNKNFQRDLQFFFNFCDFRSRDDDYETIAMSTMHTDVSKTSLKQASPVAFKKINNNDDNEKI
Method: This pharmacologic activity is assayed in SK-N-MC (human neuroblastoma) cell membranes using iodine-125-labeled I-PYY as a radioligand. […] These types of dihydropyridines have significant affinity for α1-adrenergic receptors and/or Ca^++ channels.
The following examples set forth the process for producing various squarate derivatives of the dihydropyridine. The binding affinities were determined at NPY Y1 receptors. The pharmacologic activity was assayed in SK-N-MC (human neuroblastoma) cell membranes using iodine-125-labeled 1-PYY as ratio ligand. Examples 1 and 2 are directed to the production of the intermediates. Examples 3-6 are directed to the process of producing the squarate derivatives.
The compounds of Examples 1-6 were tested for binding affinity at NPY Y1 receptors. The pharmacologic activity was assayed in SK-N-MC (human neuroplastoma) cell membranes using iodine-125 labeled I-PYY as a radioligand.

Row | SMILES | IC50 (NPY Y1 receptors) [nM] | melting point [°C]
1 | CCOc1c(Nc2cccc(C3C(C(=O)OC)=C(C)NC(C)=C3C(=O)OC)c2)c(=O)c1=O [Example 1, 4-[3-[(2-Ethoxy-3,4-dioxo-1-cyclobuten-1-yl)amino]phenyl]-1,4-dihydro-2,6-dimethyl-3,5-pyridinedicarboxylic Acid, Dimethyl Ester] | > 1000 | 249 to 252
2 | CCOc1c(Nc2cc(C3C(C(=O)OC)=C(C)NC(C)=C3C(=O)OC)ccc2F)c(=O)c1=O [Example 2, 4-[3-[(2-Ethoxy-3,4-dioxo-1cyclobuten-1-yl)amino]-4-fluorophenyl]-1,4-dihydro-2,6-dimethyl-3,5-pyridinedicarboxylic Acid, Dimethyl Ester] | > 1000 | 203 to 205
3 | COC(=O)C1=C(C)NC(C)=C(C(=O)OC)C1c1ccc(F)c(Nc2c(NCCCN3CCN(C4CCCCC4)CC3)c(=O)c2=O)c1 [Example 6, 4-[3-[[2-[[3-(4-cyclohexyl-1-piperazinyl)propyl]amino]-3,4-dioxo-1-cyclobuten-1-yl]amino]-4-fluorophenyl]-1,4-dihydro-2,6-dimethyl-3,5-pyridinedicarboxylic Acid, Dimethyl Ester] | 950 | 229 to 230

Now those with a lower IC50 (NPY Y1 receptors), led by results:

Row | IC50 (NPY Y1 receptors) [nM] | melting point [°C] | SMILES
4 | 24.6 | – | COC(=O)C1=C(C)NC(C)=C(C(=O)OC)C1c1cccc(Nc2c(NCCCN3CCC(c4cccc(OC)c4)CC3)c(=O)c2=O)c1 [Example 3, 1,4-Dihydro-4-[3-[[2-[[3-[4-(3-methoxyphenyl)-1-piperidinyl]propyl]amino]-3,4-dioxo-1-cyclobuten-1-yl]amino]phenyl]-2,3-dimethyl-3,5-pyridinedicarboxylic Acid, Dimethyl Ester]
5 | 65.8 | 205 to 207 | COC(=O)C1=C(C)NC(C)=C(C(=O)OC)C1c1ccc(F)c(Nc2c(NCCCN3CCC(c4cccc(OC)c4)CC3)c(=O)c2=O)c1 [Example 4, 4-[4-Fluoro-3-[[2-[[3-[4-(3-methoxyphenyl)-1-piperidinyl]propyl]amino]-3,4-dioxo-1-cyclobuten-1-yl]amino]phenyl]-1,4-dihydro-2,6-dimethyl-3,5-pyridinedicarboxylic Acid, Dimethyl Ester]
6 | 140 | 210 to 212 | COC(=O)C1=C(C)NC(C)=C(C(=O)OC)C1c1cccc(Nc2c(NCCCN3CCN(C4CCCCC4)CC3)c(=O)c2=O)c1 [Example 5, 4-[3-[[2-[[3-(4-cyclohexyl-1-piperazinyl)propyl]amino]-3,4-dioxo-1-cyclobuten-1-yl]amino]phenyl]-1,4-dihydro-2,6-dimethyl-3,5-pyridinedicarboxylic Acid, Dimethyl Ester]
